This is an account of results in PMC6152416, “Pharmacological and Toxicological Screening of Novel Benzimidazole-Morpholine Derivatives as Dual-Acting Inhibitors” (Molecules : A Journal of Synthetic Chemistry and Natural …, 2017).

T1 sequence (P05979 25-600): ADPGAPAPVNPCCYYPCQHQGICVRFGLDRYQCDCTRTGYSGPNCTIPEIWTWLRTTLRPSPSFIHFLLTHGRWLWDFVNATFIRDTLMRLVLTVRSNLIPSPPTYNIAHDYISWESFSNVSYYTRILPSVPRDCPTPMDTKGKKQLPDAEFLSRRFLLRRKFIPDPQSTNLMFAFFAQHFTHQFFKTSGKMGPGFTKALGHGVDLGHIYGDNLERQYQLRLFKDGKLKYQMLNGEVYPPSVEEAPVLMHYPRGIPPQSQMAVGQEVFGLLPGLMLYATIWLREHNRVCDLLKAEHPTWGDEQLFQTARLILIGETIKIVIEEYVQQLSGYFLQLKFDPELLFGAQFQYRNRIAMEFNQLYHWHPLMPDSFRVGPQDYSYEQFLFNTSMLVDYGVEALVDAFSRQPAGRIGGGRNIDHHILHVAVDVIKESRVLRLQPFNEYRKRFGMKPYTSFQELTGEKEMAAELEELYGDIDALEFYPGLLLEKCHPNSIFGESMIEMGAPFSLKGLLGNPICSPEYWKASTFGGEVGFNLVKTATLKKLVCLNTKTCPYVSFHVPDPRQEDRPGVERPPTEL

The first assay concerns the target T1, COX-1 (Ovis aries, UniProt P05979).
T1 construct: purchased BioVision (Milpitas, CA, USA) K548-100
Kind of assay: Fluorimetric COX-1 inhibition screening kit (BioVision). In kind it is biochemical.
Conditions: not given
The procedure:
(§1) Inhibitory potency of the compounds on COX-1 and COX-2 enzymes was determined by using fluorimetric COX-1 and COX-2 inhibition screening kits from BioVision (Milpitas, CA, USA). The experimental protocol as described in the guides provided by the supplier was followed. All of the pipetting were performed using a robotized system to increase speed, accuracy and precision. Fluorescence intensities of the samples were kinetically measured at 25 °C for 5–10 min by monitoring emissions at 587 nm after excitation at 535 nm. Two appropriate points (T1 and T2) in the linear range of the plot were chosen and the corresponding fluorescence values (RFU1 and RFU2) were obtained. The slope for all samples including Enzyme Control (EC) was calculated by dividing the net ΔRFU (RFU2 − RFU1) values by the time ΔT (T2 − T1). Percentage of relative inhibition was calculated by using the following equation:% Relative inhibition = (Slope of EC − Slope of S/Slope of EC) × 100 where S is the term representing the tested compound [51, 52]. […] The IC50 values were calculated using the plots of the enzyme activity against concentrations by applying regression analyses.
With `CCN(CC)c1ccc(-c2nc3ccccc3n2CCN2CCOCC2)cc1` [Compound 2h, 2-(4-Diethylaminophenyl)-1-[2-(morpholin-4-yl)ethyl]-1H-benzimidazole], the IC50 stood at 43 µM.

Still in this assay, the particulars now being: 10^-3 M.
With `CCN(CC)c1ccc(-c2nc3ccccc3n2CCN2CCOCC2)cc1` [Compound 2h, 2-(4-Diethylaminophenyl)-1-[2-(morpholin-4-yl)ethyl]-1H-benzimidazole], the “COX-1 Inhibition (%)” value was 75.21%.

Still in this assay, the particulars now being: 10^-4 M.
As for `CCN(CC)c1ccc(-c2nc3ccccc3n2CCN2CCOCC2)cc1` [Compound 2h, 2-(4-Diethylaminophenyl)-1-[2-(morpholin-4-yl)ethyl]-1H-benzimidazole], the “COX-1 Inhibition (%)” value was determined as 78.21%.

The same assay, now with this note: 10^−3 M and 10^−4 M.
For the compound `CCN(CC)c1ccc(-c2nc3ccccc3n2CCN2CCOCC2)cc1` [Compound 2h, 2-(4-Diethylaminophenyl)-1-[2-(morpholin-4-yl)ethyl]-1H-benzimidazole], the “COX-1 inhibition at the initial concentrations” value was “more than 50%”.

The assay is the same for the next values; noted with them: 10^−5 M.
Turning to `CCN(CC)c1ccc(-c2nc3ccccc3n2CCN2CCOCC2)cc1` [Compound 2h, 2-(4-Diethylaminophenyl)-1-[2-(morpholin-4-yl)ethyl]-1H-benzimidazole], at 10 µM the inhibition was 46.3 ± 1.09%.

Staying with this assay, now noted: 10^−6 M.
In turn, `CCN(CC)c1ccc(-c2nc3ccccc3n2CCN2CCOCC2)cc1` [Compound 2h, 2-(4-Diethylaminophenyl)-1-[2-(morpholin-4-yl)ethyl]-1H-benzimidazole] returned an inhibition at 1 µM of 40.9 ± 0.99%.

Still in this assay, the particulars now being: 10^−7 M.
`CCN(CC)c1ccc(-c2nc3ccccc3n2CCN2CCOCC2)cc1` [Compound 2h, 2-(4-Diethylaminophenyl)-1-[2-(morpholin-4-yl)ethyl]-1H-benzimidazole] came in with an inhibition at 0.1 µM of 35.6 ± 0.81%.

The same assay, now with this note: 10^−8 M.
In turn, `CCN(CC)c1ccc(-c2nc3ccccc3n2CCN2CCOCC2)cc1` [Compound 2h, 2-(4-Diethylaminophenyl)-1-[2-(morpholin-4-yl)ethyl]-1H-benzimidazole] gave an inhibition at 0.01 µM of 30.8 ± 0.93%.

The assay is the same for the next values; noted with them: 10^−9 M.
For `CCN(CC)c1ccc(-c2nc3ccccc3n2CCN2CCOCC2)cc1` [Compound 2h, 2-(4-Diethylaminophenyl)-1-[2-(morpholin-4-yl)ethyl]-1H-benzimidazole], the inhibition at 0.001 µM was 24.2 ± 0.72%.

The next assay deals with T2, human recombinant MAO-B (Homo sapiens, UniProt P27338).
T2 sequence (P27338 1-520): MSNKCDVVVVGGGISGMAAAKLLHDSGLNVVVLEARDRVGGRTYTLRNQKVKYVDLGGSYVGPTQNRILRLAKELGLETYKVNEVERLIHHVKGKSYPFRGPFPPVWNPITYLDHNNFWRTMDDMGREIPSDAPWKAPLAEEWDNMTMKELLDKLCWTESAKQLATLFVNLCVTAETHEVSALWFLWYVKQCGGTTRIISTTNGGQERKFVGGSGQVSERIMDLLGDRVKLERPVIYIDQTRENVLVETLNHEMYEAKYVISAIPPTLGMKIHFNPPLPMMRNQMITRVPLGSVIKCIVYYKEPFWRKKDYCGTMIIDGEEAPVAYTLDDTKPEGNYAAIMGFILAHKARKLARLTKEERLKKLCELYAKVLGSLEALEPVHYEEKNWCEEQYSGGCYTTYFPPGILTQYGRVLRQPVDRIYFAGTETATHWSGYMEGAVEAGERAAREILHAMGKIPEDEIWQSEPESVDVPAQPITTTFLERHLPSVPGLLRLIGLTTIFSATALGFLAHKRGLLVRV
Briefly: MAO inhibition assay (kynuramine, fluorimetric). In kind it is biochemical. To be noted: 10^-3 M. The procedure:
(§2) Enzyme activity assays were performed according to the procedure reported by Matsumoto et al. with slight modifications. In order to prevent the destructive effect of light on MAO enzymes, the assays were performed in 96-well black plates. Phosphate buffer solution (0.1 M, pH = 7.4) was used for preparation of stock solutions (5 mg/mL) of both human recombinant MAO-A and MAO-B enzymes. […] The addition of the test compound solution was followed by addition of either MAO-A or MAO-B enzyme (50 μL/well) solutions. After 10 min of incubation at 37 °C, kynuramine (50 μL/well) was added and enzyme-substrate reaction was initiated. The plate was incubated for 20 min at 37 °C and then reaction was terminated by addition of 2 N NaOH (75 μL/well). The fluorimetric reads from the top was performed at 310 nm excitation and 380 nm emission wavelengths.
Turning to `CCN(CC)c1ccc(-c2nc3ccccc3n2CCN2CCOCC2)cc1` [Compound 2h, 2-(4-Diethylaminophenyl)-1-[2-(morpholin-4-yl)ethyl]-1H-benzimidazole], the “MAO-B Inhibition (%)” value stood at 45.58%.

The assay is the same for the next values; noted with them: 10^-4 M.
Take `CCN(CC)c1ccc(-c2nc3ccccc3n2CCN2CCOCC2)cc1` [Compound 2h, 2-(4-Diethylaminophenyl)-1-[2-(morpholin-4-yl)ethyl]-1H-benzimidazole]: the “MAO-B Inhibition (%)” value was found to be 36.16%.

In the next assay the target is T3, human recombinant MAO-A (Homo sapiens, UniProt P21397).
T3 sequence (P21397 1-527): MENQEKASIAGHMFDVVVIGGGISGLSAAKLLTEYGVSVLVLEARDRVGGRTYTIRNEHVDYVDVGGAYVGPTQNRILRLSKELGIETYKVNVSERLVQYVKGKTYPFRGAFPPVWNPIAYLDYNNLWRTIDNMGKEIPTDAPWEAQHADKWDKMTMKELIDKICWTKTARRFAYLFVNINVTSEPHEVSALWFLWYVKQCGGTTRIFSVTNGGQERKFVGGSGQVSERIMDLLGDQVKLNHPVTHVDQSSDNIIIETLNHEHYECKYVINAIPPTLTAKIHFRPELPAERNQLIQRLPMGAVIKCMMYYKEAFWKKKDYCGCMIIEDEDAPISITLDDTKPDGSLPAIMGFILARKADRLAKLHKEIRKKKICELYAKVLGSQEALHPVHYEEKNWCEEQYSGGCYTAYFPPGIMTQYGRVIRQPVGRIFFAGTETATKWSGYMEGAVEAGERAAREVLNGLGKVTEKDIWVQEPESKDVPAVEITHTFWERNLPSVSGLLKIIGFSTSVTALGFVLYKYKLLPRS
Kind of assay: MAO inhibition assay (kynuramine, fluorimetric). Type of assay: biochemical. To be noted: 10^-3 M. The procedure: as §2
Regarding `CCN(CC)c1ccc(-c2nc3ccccc3n2CCN2CCOCC2)cc1` [Compound 2h, 2-(4-Diethylaminophenyl)-1-[2-(morpholin-4-yl)ethyl]-1H-benzimidazole], the “MAO-A Inhibition (%)” value is reported as 36.71%.

Staying with this assay, now noted: 10^-4 M.
Take `CCN(CC)c1ccc(-c2nc3ccccc3n2CCN2CCOCC2)cc1` [Compound 2h, 2-(4-Diethylaminophenyl)-1-[2-(morpholin-4-yl)ethyl]-1H-benzimidazole]: the “MAO-A Inhibition (%)” value was 23.16%.

The target of the next assay is T4, COX-2 (Homo sapiens, UniProt P35354).
T4 construct: purchased BioVision (Milpitas, CA, USA) K547-100
T4 sequence (P35354 18-604): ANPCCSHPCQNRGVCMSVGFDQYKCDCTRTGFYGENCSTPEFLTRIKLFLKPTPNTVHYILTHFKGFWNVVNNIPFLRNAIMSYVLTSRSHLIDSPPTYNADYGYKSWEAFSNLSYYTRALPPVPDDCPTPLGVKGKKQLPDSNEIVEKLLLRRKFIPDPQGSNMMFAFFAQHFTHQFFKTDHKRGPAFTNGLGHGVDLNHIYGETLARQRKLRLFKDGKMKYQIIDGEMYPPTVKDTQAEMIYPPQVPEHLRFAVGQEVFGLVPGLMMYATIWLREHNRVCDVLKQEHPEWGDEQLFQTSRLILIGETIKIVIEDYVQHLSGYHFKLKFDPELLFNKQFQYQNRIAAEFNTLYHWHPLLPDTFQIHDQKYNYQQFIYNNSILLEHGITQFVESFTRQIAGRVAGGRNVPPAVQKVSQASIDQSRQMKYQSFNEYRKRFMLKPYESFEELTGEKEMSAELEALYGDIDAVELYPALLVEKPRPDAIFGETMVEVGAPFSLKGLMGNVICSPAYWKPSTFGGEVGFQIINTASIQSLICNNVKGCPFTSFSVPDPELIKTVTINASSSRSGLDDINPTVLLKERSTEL
Briefly: Fluorimetric COX-2 inhibition screening kit (BioVision). Type of assay: biochemical.
Conditions: not given
The procedure: as §1
The compound `CCN(CC)c1ccc(-c2nc3ccccc3n2CCN2CCOCC2)cc1` [Compound 2h, 2-(4-Diethylaminophenyl)-1-[2-(morpholin-4-yl)ethyl]-1H-benzimidazole] registered an IC50 of 51.2 µM.

The assay is the same for the next values; noted with them: 10^-3 M.
In the case of `CCN(CC)c1ccc(-c2nc3ccccc3n2CCN2CCOCC2)cc1` [Compound 2h, 2-(4-Diethylaminophenyl)-1-[2-(morpholin-4-yl)ethyl]-1H-benzimidazole], the “COX-2 Inhibition (%)” value was 56.20%.

The assay is the same for the next values; noted with them: 10^-4 M.
Turning to `CCN(CC)c1ccc(-c2nc3ccccc3n2CCN2CCOCC2)cc1` [Compound 2h, 2-(4-Diethylaminophenyl)-1-[2-(morpholin-4-yl)ethyl]-1H-benzimidazole], the “COX-2 Inhibition (%)” value amounted to 57.08%.

Still in this assay, the particulars now being: 10^−3 M and 10^−4 M.
As to `CCN(CC)c1ccc(-c2nc3ccccc3n2CCN2CCOCC2)cc1` [Compound 2h, 2-(4-Diethylaminophenyl)-1-[2-(morpholin-4-yl)ethyl]-1H-benzimidazole], the “COX-2 inhibition at the initial concentrations” value is on record as “more than 50%”.

Staying with this assay, now noted: 10^−5 M.
For the compound `CCN(CC)c1ccc(-c2nc3ccccc3n2CCN2CCOCC2)cc1` [Compound 2h, 2-(4-Diethylaminophenyl)-1-[2-(morpholin-4-yl)ethyl]-1H-benzimidazole], at 10 µM the inhibition was 47.5 ± 1.08%.

The assay is the same for the next values; noted with them: 10^−6 M; read-out: COX 2 Inhibition %.
Regarding `CCN(CC)c1ccc(-c2nc3ccccc3n2CCN2CCOCC2)cc1` [Compound 2h, 2-(4-Diethylaminophenyl)-1-[2-(morpholin-4-yl)ethyl]-1H-benzimidazole], the inhibition at 1 µM amounted to 42.6 ± 1.16%.

Staying with this assay, now noted: 10^−7 M.
The compound `CCN(CC)c1ccc(-c2nc3ccccc3n2CCN2CCOCC2)cc1` [Compound 2h, 2-(4-Diethylaminophenyl)-1-[2-(morpholin-4-yl)ethyl]-1H-benzimidazole] returned an inhibition at 0.1 µM of 31.8 ± 0.99%.

The assay is the same for the next values; noted with them: 10^−8 M.
The compound `CCN(CC)c1ccc(-c2nc3ccccc3n2CCN2CCOCC2)cc1` [Compound 2h, 2-(4-Diethylaminophenyl)-1-[2-(morpholin-4-yl)ethyl]-1H-benzimidazole] had an inhibition at 0.01 µM of 28.4 ± 0.82%.

The same assay, now with this note: 10^−9 M.
`CCN(CC)c1ccc(-c2nc3ccccc3n2CCN2CCOCC2)cc1` [Compound 2h, 2-(4-Diethylaminophenyl)-1-[2-(morpholin-4-yl)ethyl]-1H-benzimidazole] had an inhibition at 0.001 µM of 23 ± 0.68%.

In a further assay the target is AChE (Homo sapiens, UniProt P22303).
Sequence of AChE (P22303 32-614): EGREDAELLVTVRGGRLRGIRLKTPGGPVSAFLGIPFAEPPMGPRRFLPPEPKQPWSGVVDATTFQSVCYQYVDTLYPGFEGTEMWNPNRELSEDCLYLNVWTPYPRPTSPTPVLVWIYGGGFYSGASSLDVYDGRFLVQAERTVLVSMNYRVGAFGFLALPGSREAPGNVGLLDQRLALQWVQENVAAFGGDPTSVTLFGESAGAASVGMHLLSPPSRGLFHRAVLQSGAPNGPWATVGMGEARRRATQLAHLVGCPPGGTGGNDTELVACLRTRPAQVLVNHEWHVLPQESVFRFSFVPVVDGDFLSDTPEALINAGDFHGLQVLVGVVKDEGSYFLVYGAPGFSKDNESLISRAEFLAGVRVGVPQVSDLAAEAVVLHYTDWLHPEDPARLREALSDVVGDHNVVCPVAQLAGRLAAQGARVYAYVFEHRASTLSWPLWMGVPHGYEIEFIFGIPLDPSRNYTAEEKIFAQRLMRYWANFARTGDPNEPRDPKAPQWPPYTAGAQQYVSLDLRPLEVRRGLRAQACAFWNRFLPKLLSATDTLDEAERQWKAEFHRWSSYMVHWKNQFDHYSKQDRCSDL
Assay: not given
In kind it is biochemical. To be noted: 10^-3 M. As for the experimental part: Inhibition potency of the test compounds against AChE was determined using Ellman’s method. Enzyme solutions were prepared in gelatin solution (1%, w/v), at the concentration of 2.5 units/mL. […] AChE solution (20 µL/well) and test solution (20 µL/well) were added to phosphate buffer solution (140 µL/well, pH 8.0 ± 0.1), and incubated at 25 °C for 5 min. […] The production of the yellow anion was recorded by multimode microplate reader for 10 min at 412 nm. As a control, an identical solution of the enzyme without the inhibitor was processed. The control and the inhibitor readings were corrected with blank-readings. All processes were assayed in four independent determinations.
On to `CCN(CC)c1ccc(-c2nc3ccccc3n2CCN2CCOCC2)cc1` [Compound 2h, 2-(4-Diethylaminophenyl)-1-[2-(morpholin-4-yl)ethyl]-1H-benzimidazole], for which the “AChE Inhibition (%)” value worked out at 10.49%.

The assay is the same for the next values; noted with them: 10^-4 M.
Take `CCN(CC)c1ccc(-c2nc3ccccc3n2CCN2CCOCC2)cc1` [Compound 2h, 2-(4-Diethylaminophenyl)-1-[2-(morpholin-4-yl)ethyl]-1H-benzimidazole]: the “AChE Inhibition (%)” value is listed as 10.49%.

As a reminder, the IC50 is the concentration at which inhibition is half-maximal. For orientation: inhibition means how much of the control response was suppressed.
